Measurements reported in US20250215029A1 (Recludix Pharma, Inc., priority 2022, published 2025).
pIC50: −log10 of the molar value.

Key:
[1] = molecular target: T1, Recombinant STAT3 protein (STAT3 (G127-I722)) (Homo sapiens, UniProt P40763); experiment: STAT3 Fluorescence Polarization (FP) Assay; assay type: binding; conditions: STAT3 (G127-I722) 25 nM, probe 5-FAM-GpYLPQTV-NH2 2 nM, 45-minute incubation; read-out: STAT3 (FP assay IC50 class)
T1 construct: Recombinant STAT3 protein (STAT3 (G127-I722))
Summary of the method: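 In this competition FP format, STAT3 residues G127-I722 (25 nM) and 2 nM 5-FAM-GpYLPQTV-NH2 met test compounds for 45 min at room temperature. IC50 values result from fitting mP signal against log concentration by nonlinear regression.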

[2] = molecular target: T2, Recombinant STAT6 protein (STAT6 (W123-T658)) (Homo sapiens, UniProt P42226); experiment: STAT6 Fluorescence Polarization (FP) Assay; assay type: binding; conditions: STAT6 (W123-T658) 250 nM, probe 5-FAM-Ap[…]-NH2 2 nM, 45-minute incubation; read-out: STAT6 (FP assay IC50 class)
T2 construct: Recombinant STAT6 protein (STAT6 (W123-T658))
T2 sequence (P42226 123-658): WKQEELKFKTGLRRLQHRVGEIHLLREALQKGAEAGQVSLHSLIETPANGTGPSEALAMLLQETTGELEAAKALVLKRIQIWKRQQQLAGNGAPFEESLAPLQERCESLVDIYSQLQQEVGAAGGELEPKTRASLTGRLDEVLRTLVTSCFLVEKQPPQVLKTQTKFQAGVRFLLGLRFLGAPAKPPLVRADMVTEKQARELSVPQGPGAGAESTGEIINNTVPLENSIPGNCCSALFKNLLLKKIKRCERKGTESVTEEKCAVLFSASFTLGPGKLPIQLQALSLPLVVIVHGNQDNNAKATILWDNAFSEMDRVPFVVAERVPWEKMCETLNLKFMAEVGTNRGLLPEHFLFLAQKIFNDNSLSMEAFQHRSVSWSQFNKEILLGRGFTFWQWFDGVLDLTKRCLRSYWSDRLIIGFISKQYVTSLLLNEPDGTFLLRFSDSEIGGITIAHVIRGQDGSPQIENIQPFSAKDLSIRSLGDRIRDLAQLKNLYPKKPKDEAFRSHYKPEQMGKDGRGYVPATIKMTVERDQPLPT
Summary of the method: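 Recombinant STAT6 (W123-T658) at 250 nM mixed with 2 nM 5-FAM phosphotyrosine peptide probe in HEPES pH 7.4 buffer with DTT, 1% DMSO final, added to serially diluted compounds. FP (mP) read after 45 min at room temperature; IC50 by nonlinear regression vs log concentration.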

T1 sequence (P40763 127-722): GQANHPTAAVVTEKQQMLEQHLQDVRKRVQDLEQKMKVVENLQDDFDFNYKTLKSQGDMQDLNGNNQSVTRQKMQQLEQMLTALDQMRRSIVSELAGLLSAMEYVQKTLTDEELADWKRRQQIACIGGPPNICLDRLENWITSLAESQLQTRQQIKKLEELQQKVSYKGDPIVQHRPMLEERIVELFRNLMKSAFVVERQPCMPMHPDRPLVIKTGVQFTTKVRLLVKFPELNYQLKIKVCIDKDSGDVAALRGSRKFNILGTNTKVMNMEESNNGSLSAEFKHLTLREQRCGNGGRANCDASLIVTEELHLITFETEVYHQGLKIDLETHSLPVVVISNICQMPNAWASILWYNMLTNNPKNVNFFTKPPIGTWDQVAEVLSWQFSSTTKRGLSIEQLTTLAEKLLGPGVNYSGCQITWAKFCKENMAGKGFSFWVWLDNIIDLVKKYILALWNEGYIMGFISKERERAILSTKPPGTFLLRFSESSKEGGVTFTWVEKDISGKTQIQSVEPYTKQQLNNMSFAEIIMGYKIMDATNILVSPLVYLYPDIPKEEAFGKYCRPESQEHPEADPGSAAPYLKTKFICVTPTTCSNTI

| pIC50 [1] | pIC50 [2] | SMILES |
| --- | --- | --- |
| > 7.00 | 4.52 to 5.52 | CN(C)c1ncncc1C1CN(C(=O)[C@@H]2CC[C@@H]3CCC[C@H](NC(=O)c4cc5cc([C@H](F)P(=O)(O)O)ccc5s4)C(=O)N32)C1 (single isomer, unassigned) [Compound 665] |
| > 7.00 | 5.52 to 6.52 | O=C(N[C@H]1CCC[C@H]2CC[C@@H](C(=O)N3CC(c4cncnc4N4CCC4)C3)N2C1=O)c1cc2cc([C@H](F)P(=O)(O)O)ccc2s1 (single isomer, unassigned) [Compound 689] |
| 5.00 to 6.00 | 4.52 to 5.52 | CN(C)C(=O)c1ccncc1C1CN(C(=O)[C@@H]2CC[C@@H]3CCC[C@H](NC(=O)c4cc5cc([C@@H](F)P(=O)(O)O)ccc5s4)C(=O)N32)C1 (single isomer, unassigned) [Compound 696] |
| 6.00 to 7.00 | 4.52 to 5.52 | COc1c(C2CN(C(=O)[C@@H]3CC[C@@H]4CCC[C@H](NC(=O)c5cc6cc([C@@H](F)P(=O)(O)O)ccc6s5)C(=O)N43)C2)ccnc1Cl (single isomer, unassigned) [Compound 698] |
| 6.00 to 7.00 | 4.52 to 5.52 | COc1cc(C2CN(C(=O)[C@@H]3CC[C@@H]4CCC[C@H](NC(=O)c5cc6cc([C@@H](F)P(=O)(O)O)ccc6s5)C(=O)N43)C2)ccn1 (single isomer, unassigned) [Compound 702] |
| 6.00 to 7.00 | 4.52 to 5.52 | CN(C)c1nccc(C2CN(C(=O)[C@@H]3CC[C@@H]4CCC[C@H](NC(=O)c5cc6cc([C@@H](F)P(=O)(O)O)ccc6s5)C(=O)N43)C2)n1 (single isomer, unassigned) [Compound 710] |
| 5.00 to 6.00 | 4.52 to 5.52 | O=C(N[C@H]1CCC[C@H]2CC[C@@H](C(=O)N3CC(c4ccnc(N5CCOCC5)c4)C3)N2C1=O)c1cc2cc([C@@H](F)P(=O)(O)O)ccc2s1 (single isomer, unassigned) [Compound 712] |
| 6.00 to 7.00 | 4.52 to 5.52 | CN(C)c1cncc(C2CN(C(=O)[C@@H]3CC[C@@H]4CCC[C@H](NC(=O)c5cc6cc([C@H](F)P(=O)(O)O)ccc6s5)C(=O)N43)C2)c1Cl (single isomer, unassigned) [Compound 713] |
| > 7.00 | 4.52 to 5.52 | Cc1ccncc1C1CN(C(=O)[C@@H]2CC[C@@H]3C[C@H](C)C[C@H](NC(=O)c4cc5cc([C@H](F)P(=O)(O)O)ccc5s4)C(=O)N32)C1 (single isomer, unassigned) [Compound 740] |
| > 7.00 | 5.52 to 6.52 | O=C(N[C@H]1CCC[C@H]2CC[C@@H](C(=O)N3CC(c4cnccc4N4CCC4)C3)N2C1=O)c1cc2cc([C@H](F)P(=O)(O)O)ccc2s1 (single isomer, unassigned) [Compound 742] |
| > 7.00 | 4.52 to 5.52 | Cc1ccncc1C1CN(C(=O)[C@@H]2CC[C@@H]3C[C@H](C)C[C@H](NC(=O)c4cc5cc([C@@H](F)P(=O)(O)O)ccc5s4)C(=O)N32)C1 (single isomer, unassigned) [Compound 753] |
| > 7.00 | 4.52 to 5.52 | Cc1ccncc1C1CN(C(=O)[C@@H]2CC[C@@H]3CCC[C@H](NC(=O)c4cc5cc([C@@H](F)P(=O)(O)O)ccc5s4)C(=O)N32)C1 (single isomer, unassigned) [Compound 755] |

Further lines, the molecule ahead of its results:

| SMILES | pIC50 [1] | pIC50 [2] |
| --- | --- | --- |
| CN(C)c1ccncc1C1CN(C(=O)[C@@H]2CC[C@@H]3CCC[C@H](NC(=O)c4cc5cc([C@H](F)P(=O)(O)O)ccc5s4)C(=O)N32)C1 (single isomer, unassigned) [Compound 634] | > 7.00 | 5.52 to 6.52 |
| Cc1ccncc1C1CN(C(=O)[C@@H]2CC[C@@H]3CCC[C@H](NC(=O)c4cc5cc([C@H](F)P(=O)(O)O)ccc5s4)C(=O)N32)C1 (single isomer, unassigned) [Compound 636] | > 7.00 | 4.52 to 5.52 |
| CN(C)c1ncncc1C1CN(C(=O)[C@@H]2CC[C@@H]3CCC[C@H](NC(=O)c4cc5cc([C@@H](F)P(=O)(O)O)ccc5s4)C(=O)N32)C1 (single isomer, unassigned) [Compound 667] | > 7.00 | 4.52 to 5.52 |
| COC[C@@H]1CCN1c1ncncc1C1CN(C(=O)[C@@H]2CC[C@@H]3CCC[C@H](NC(=O)c4cc5cc([C@@H](F)P(=O)(O)O)ccc5s4)C(=O)N32)C1 (single isomer, unassigned) [Compound 669] | > 7.00 | 4.52 to 5.52 |
| Cc1nnc([C@H]2[C@H](c3ccccc3)CN2C(=O)[C@@H]2CC[C@@H]3CCC[C@H](NC(=O)c4cc5cc(C(F)P(=O)(O)O)ccc5s4)C(=O)N32)o1 (single isomer, unassigned) [Compound 674] | 6.00 to 7.00 | 4.52 to 5.52 |
| C[C@H]1C[C@H]2CC[C@@H](C(=O)N3CC(c4cncnc4N4CCC4)C3)N2C(=O)[C@@H](NC(=O)c2cc3cc([C@H](F)P(=O)(O)O)ccc3s2)C1 (single isomer, unassigned) [Compound 676] | > 7.00 | 4.52 to 5.52 |
| C[C@H]1C[C@H]2CC[C@@H](C(=O)N3CC(c4cncnc4N4CCC4)C3)N2C(=O)[C@@H](NC(=O)c2cc3cc([C@@H](F)P(=O)(O)O)ccc3s2)C1 (single isomer, unassigned) [Compound 677] | > 7.00 | 4.52 to 5.52 |
| CN(C)c1c(F)cncc1C1CN(C(=O)[C@@H]2CC[C@@H]3CCC[C@H](NC(=O)c4cc5cc([C@H](F)P(=O)(O)O)ccc5s4)C(=O)N32)C1 (single isomer, unassigned) [Compound 685] | > 7.00 | 4.52 to 5.52 |
| O=C(N[C@H]1CCC[C@H]2CC[C@@H](C(=O)N3CC(c4cncnc4N4CCC4)C3)N2C1=O)c1cc2cc([C@@H](F)P(=O)(O)O)ccc2s1 (single isomer, unassigned) [Compound 690] | > 7.00 | 4.52 to 5.52 |
| COc1nccc(C2CN(C(=O)[C@@H]3CC[C@@H]4CCC[C@H](NC(=O)c5cc6cc([C@@H](F)P(=O)(O)O)ccc6s5)C(=O)N43)C2)c1F (single isomer, unassigned) [Compound 700] | 6.00 to 7.00 | 4.52 to 5.52 |
| CN(C)c1cc(C2CN(C(=O)[C@@H]3CC[C@@H]4CCC[C@H](NC(=O)c5cc6cc([C@@H](F)P(=O)(O)O)ccc6s5)C(=O)N43)C2)ccn1 (single isomer, unassigned) [Compound 701] | 6.00 to 7.00 | 4.52 to 5.52 |
| CNc1c(F)cncc1C1CN(C(=O)[C@@H]2CC[C@@H]3CCC[C@H](NC(=O)c4cc5cc([C@H](F)P(=O)(O)O)ccc5s4)C(=O)N32)C1 (single isomer, unassigned) [Compound 703] | > 7.00 | 4.52 to 5.52 |
| Cn1ccc(C2CN(C(=O)[C@@H]3CC[C@@H]4CCC[C@H](NC(=O)c5cc6cc([C@@H](F)P(=O)(O)O)ccc6s5)C(=O)N43)C2)cc1=O (single isomer, unassigned) [Compound 708] | 6.00 to 7.00 | 4.52 to 5.52 |
| CCOc1cc(C2CN(C(=O)[C@@H]3CC[C@@H]4CCC[C@H](NC(=O)c5cc6cc([C@@H](F)P(=O)(O)O)ccc6s5)C(=O)N43)C2)ccn1 (single isomer, unassigned) [Compound 709] | 6.00 to 7.00 | 4.52 to 5.52 |
| C[C@@H]1[C@@H](c2cccnc2)CN1C(=O)[C@@H]1CC[C@@H]2CCC[C@H](NC(=O)c3cc4cc(C(F)P(=O)(O)O)ccc4s3)C(=O)N21 (single isomer, unassigned) [Compound 738] | > 7.00 | 5.52 to 6.52 |
| O=C(N[C@H]1CCC[C@H]2CC[C@@H](C(=O)N3CC(c4cnccc4N4CCC4)C3)N2C1=O)c1cc2cc([C@@H](F)P(=O)(O)O)ccc2s1 (single isomer, unassigned) [Compound 741] | > 7.00 | 5.52 to 6.52 |
| O=C(N[C@H]1CCC[C@H]2CC[C@@H](C(=O)N3CC(c4cnccc4N4CCOCC4)C3)N2C1=O)c1cc2cc([C@@H](F)P(=O)(O)O)ccc2s1 (single isomer, unassigned) [Compound 745] | > 7.00 | 4.52 to 5.52 |
| O=C(N[C@H]1CCC[C@H]2CC[C@@H](C(=O)N3CC(c4cnccc4N4CCOCC4)C3)N2C1=O)c1cc2cc([C@H](F)P(=O)(O)O)ccc2s1 (single isomer, unassigned) [Compound 746] | > 7.00 | 4.52 to 5.52 |
| COc1ccncc1C1CN(C(=O)[C@@H]2CC[C@@H]3CCC[C@H](NC(=O)c4cc5cc([C@H](F)P(=O)(O)O)ccc5s4)C(=O)N32)C1 (single isomer, unassigned) [Compound 747] | > 7.00 | 4.52 to 5.52 |
| CC(C)Oc1ccncc1C1CN(C(=O)[C@@H]2CC[C@@H]3C[C@@H](C)C[C@H](NC(=O)c4cc5cc([C@H](F)P(=O)(O)O)ccc5s4)C(=O)N32)C1 (single isomer, unassigned) [Compound 748] | > 7.00 | 4.52 to 5.52 |
